Laboratory results taken from patent US20240092744A1, “TRICYCLIC COMPOUND, AND PREPARATION METHOD THEREFOR AND MEDICAL USE THEREOF” (THE NATIONAL INSTITUTES OF PHARMACEUTICAL R&D CO., LTD., priority 2020, published 2024).

Assays:
[1] = Determination of aldehyde capture rate (nonenal as model aldehyde, HPLC quantification); conditions: for Aldehyde consumption (100%): 0.05 mM compound, 0.025 mM nonenal, room temperature; for Capture rate (slope of the capture curve per unit time): higher absolute value of the slope = higher capture rate
Description: In the aldehyde capture test disclosed in the present invention, the stable lipid metabolite, nonenal, was used as the model aldehyde to react with the compound of the Example. The specific protocol was as follows.
0.05 mM of the compounds of the Examples of the present invention were precisely weighed respectively and dissolved in 1.2 mL of a mixed solution (v/v=1:1) of triolein (Aladdin, G105172-5g) and linoleic acid (Aladdin, L100442-25g), respectively. 2.5 mL of PBS (Solarbio, P1020) solution containing 20% Captisol® (Aladdin, Cl25030-25 g) was added, and the solution was stirred at room temperature overnight. After the example compound was completely dissolved, 0.025 mM nonenal (Sigma, 255653-5G) was added, and the solution was stirred vigorously at room temperature. […] The solution was mixed vigorously by vortex for 2 minutes, and centrifuged at a low speed of 1000 r/min for 3 minutes. The supernatant was transferred to an injection vial. The nonenal in the reaction mixture was analyzed quantitatively by high performance liquid chromatography. The adduct resulted from the example compound of the present invention and nonenal was analyzed qualitatively by high performance liquid chromatography-mass spectrometry.
Liquid Chromatograph: Waters I Class;
Column: ACQUITY UPLC HSS T3 1.8 μm;
Column temperature: 40° C.;
Liquid chromatography condition: mobile phase A: acetonitrile containing 0.1% formic acid; B: water containing 0.1% formic acid;
Injection volume: 0.5 mL.
Gradient of the mobile phases: […]
In the developed detection method, the retention time of the model aldehyde nonenal was 2.42 minutes. • Mass spectrometry conditions: • Mass spectrometer: Waters TQ-S micro • Ion source: ESI^+ • Capillary voltage: 0.5 kV • Cone voltage: 10V • Source temperature: 150° C. • Degassing temperature: 500° C., degassing flow: 1000 L/Hr • SIM mode • m/z: 225.24 [(mExample 1−OH)+H]^+, 365.42 [madduct 1+H]^+
The time-varying diagram of the capture reaction of the compounds of the examples of the present invention to nonenal is shown in FIG. 1.

[2] = system: noninfectious uveitis animal model; test: Therapeutic effect in lipopolysaccharide-induced noninfectious uveitis animal model (eye drops); type: in vivo, Female lewis rats
Description: Female lewis rats were used as the research subjects. Lewis rats (Vital River) were randomly divided into groups (4 animals per group, a total of 8 eyes). The groups are as follows: normal control group, model control group, and example administration group. The inflammation model was established in these groups except for the normal control group.
Formulation of eye drops: • (1) Formulation of drug vehicle stock solution: […] of Na2HPO4.12H2O (Xilong Scientific, 9009012-01-09), 19 mg of NaH2PO4.2H2O (Xilong Scientific, 9009013-01-09) and 9500 mg of β-cyclodextrin (Sigma, E1930253) were precisely weighed and dissolved in 30 mL sterile water for injection (Beijing CR Double-Crane), followed by addition of […] of PEG-400 (Solarbio, 222U011). The solution was mixed well, and made up to 50 mL with water for injection. • (2) Formulation of drug solution: 10 mg of the compound of Example 2 of the present invention was weighed and dissolved in 1 mL of the vehicle stock solution, and the resulting solution was made up to 2 mL with water for injection. The content of each substance is as follows: Na2HPO4.12H2O 0.83%, NaH2PO4.2H2O 0.017%, β-cyclodextrin 9.5%, PEG-400 5.0%, active compound 0.5%. • (3) The pH value of the formulated drug solution was determined by pH test paper. If the pH value was not within 7.3±0.05, then it was adjusted to this range with 1 N HCl or 1 N NaOH. […]
The animal model was a noninfectious uveitis animal model established by intraperitoneal injection of lipopolysaccharide (derived from Escherichia coli, 055:B5, Sigma, L2880-100MG, injection dose: 2 mg/kg). […] The ocular inflammation of the animals in each group was examined with a slit lamp microscope (Jiangxi Jiangfeng, LYL-S), and evaluated according to the McDonald-Shadduck scoring system (GB/T 28538-2012).
The animals were sacrificed, and the bilateral eyeballs were enucleated. […] Quantitative analysis of total protein in aqueous humor was performed on the supernatant by a BCA protein quantification kit (Beyotime, P0010). […]

[3] = system: allergic conjunctivitis animal model; test: Therapeutic effect in C48/80-induced allergic conjunctivitis animal model; type: in vivo, Female Wistar rats; conditions: Wistar rats, 10 μL per eye, examined 20 minutes after administration
From the text: C48/80 is a polymer formed by the condensation of N-methyl-p-methoxyphenethylamine with formaldehyde, which acts directly on G protein and induces mast cell degranulation. After degranulation, the mast cell releases active substances such as histamine and kinin, which can cause acute type I allergic reactions such as telangiectasia and enhanced permeability. It can cause allergic conjunctivitis if applied topically to the ocular surface.
Female Wistar rats were used as the research subjects. Wistar rats (Vital River) were randomly divided into groups (5 animals per group, a total of 10 eyes). The groups are as follows: normal control group, model control group, positive drug group, and example administration group. The inflammation model was established in these groups except for the normal control group. Emedastine Difumarate Eye Drops (Emadine®, Alcon, H20181192) was used as the positive drug. Model establishment, administration and evaluation processes were as follows. […]
After 10 minutes of stimulation, different drug treatments were carried out according to the group settings. […] The clinical score was evaluated individually on the eyes of each animal according to the McDonald-Shadduck scoring system (GB/T 28538-2012). […]

Structure (SMILES)	Aldehyde consumption (100%) ([1]; 135 minutes) [%]	Capture rate (slope of the capture curve per unit time) ([1]; 135 minutes)	Aldehyde consumption (100%) ([1]; 180 minutes) [%]	Capture rate (slope of the capture curve per unit time) ([1]; 180 minutes)	Ocular score (McDonald-Shadduck ocular inflammation score) ([2]; 0.5% eye drops, 20 μL/eye, 24 hours after LPS modeling, mean ± standard deviation, model control 17.0 ± 6.4, normal control 4.5 ± 0.8)	Protein concentration in aqueous humor ([2]; 0.5% eye drops, 20 μL/eye, 24 hours after LPS modeling, mean ± standard deviation, model control 1062.7 ± 423.6, normal control 225.5 ± 65.4) [µg/mL]	Therapeutic effect in ocular inflammation animal model (in words) ([2]; LPS-induced uveitis, Lewis rats, eye drops)	Therapeutic effect on allergic conjunctivitis (McDonald-Shadduck score, FIG. 2, in words) [3]
Cn1c2ccccc2c2cc(N)c(C(C)(C)O)nc21 [Example 2, 2-(3-Amino-9-methyl-9H-pyrido[2,3-b]indol-2-yl)propan-2-ol]	43.48	−0.34	57.75	−0.31	8.6 ± 1.1	376.4 ± 164.0	showing a therapeutic effect	–
CC(C)(O)c1cc2c(cc1N)Oc1ccccc1O2 [Example 4, 2-(3-Aminodibenzo[b,e][1,4]dioxin-2-yl)propan-2-ol]	38.33	−0.27	48.10	−0.23	–	–	–	good therapeutic effect
